Experimental data reported in the Deep4Chem optical property database.
“And” between values parts separate entries of the source, which are not always exact repeats. Equal values may be shown once. Each block holds one compound with its values, some of them ahead of it.

Assay: photoluminescence quantum yield (fraction); solvent given as SMILES
[1] = in O=P(c1ccccc1)(c1ccccc1)c1ccccc1Oc1ccccc1P(=O)(c1ccccc1)c1ccccc1

Compound: c1ccc2c(c1)Oc1ccccc1N2c1ccc(-c2nnc(-c3ccc(N4c5ccccc5Oc5ccccc54)cc3)o2)cc1
- photoluminescence quantum yield (in Cc1ccccc1): 0.431
- photoluminescence quantum yield [1]: 0.87

- photoluminescence quantum yield (in ClCCl): 0.12
Compound: O=C(Nc1ccccc1[N+](=O)[O-])c1ccc2oc(-c3cc4ccccc4oc3=O)nc2c1

- photoluminescence quantum yield (in CCO): 0.16
- photoluminescence quantum yield (in ClCCl): 0.54
Compound: N#Cc1cnc(-c2c3ccccc3c(-c3ncc(C#N)cn3)c3ccccc23)nc1

Compound: Cc1cc(N2c3ccccc3C(C)(C)c3ccccc32)ccc1-c1ncnc(-c2ccc(N3c4ccccc4C(C)(C)c4ccccc43)cc2C)c1C
- photoluminescence quantum yield [1]: 0.47

- photoluminescence quantum yield (in CC#N): 0.69
Compound: Cc1ccc(-c2ccc(/C=C/c3ccc(F)cc3)cn2)nc1

- photoluminescence quantum yield (in ClC(Cl)Cl): 0.028
Compound: c1ccc2c([SiH](c3c4ccccc4cc4ccccc34)c3c4ccccc4cc4ccccc34)c3ccccc3cc2c1

- photoluminescence quantum yield (in ClCCl): 0.59
Compound: CCCCNc1ccc2n1[B-](F)(F)[N+]1=CC(/C=C/C(=O)OC(C)(C)C)=CC1=C2c1c(C)cc(C)cc1C

- photoluminescence quantum yield (in C1CCOC1): 0.73
Compound: C[Si](C)(C)c1ccc(-c2ccc(-c3ccc(-c4ccc(-c5ccc([Si](C)(C)C)s5)cc4)c4nsnc34)cc2)s1

- photoluminescence quantum yield (in ClCCl): 0.23
Compound: C(=C\c1ncnc2ccccc12)/c1ccc(-c2ccc(N(c3ccccc3)c3ccccc3)cc2)cc1

- photoluminescence quantum yield (in ClCCl): 0.78
Compound: c1ccc(N(c2ccccc2)c2ccc3ccc4c(N(c5ccccc5)c5ccccc5)ccc5ccc2c3c54)cc1

- photoluminescence quantum yield (in ClC(Cl)Cl): 0.01
Compound: C[Si]1(C)O[Si](C)(C)c2cc3cc4c(cc3cc21)C(=O)c1cc2cc3c(cc2cc1C4=O)[Si](C)(C)O[Si]3(C)C

- photoluminescence quantum yield (in C1CCOC1): 0.54
- photoluminescence quantum yield (in CC#N): 0.02
- photoluminescence quantum yield (in CCO): 0.01
- photoluminescence quantum yield (in CCOC(C)=O): 0.44
- photoluminescence quantum yield (in CN(C)C=O): 0.03
- photoluminescence quantum yield (in ClCCl): 0.27
- photoluminescence quantum yield (in c1ccccc1): 0.97
Compound: Cc1ccc([C@@H]2C[C@](O)(c3ccccn3)C[C@](O)(c3ccccn3)[C@H]2C(=O)c2ccc(N(c3ccccc3)c3ccccc3)cc2)cc1

- photoluminescence quantum yield (in C1COCCO1): 0.033
- photoluminescence quantum yield (in CC#N): 0.018
- photoluminescence quantum yield (in CCO): 0.03
- photoluminescence quantum yield (in CO): 0.044
- photoluminescence quantum yield (in ClCCCl): 0.028
- photoluminescence quantum yield (in O): 0.053
Compound: Cc1cccc2nc3c(=O)[nH]c(=O)[nH]c3nc12

- photoluminescence quantum yield (in ClC(Cl)Cl): 0.14 and 0.143
Compound: CC(C)(C)N1C(=O)c2c(cc3ccc4cccc5ccc2c3c45)C1O (centres undefined)

- photoluminescence quantum yield (in CN(C)C=O): 0.86
Compound: Cc1ccc2[nH]c(-c3ccc(-c4ccc(-c5ccc(-c6nc7cc(C)ccc7[nH]6)cc5)c(C)c4)cc3)nc2c1

- photoluminescence quantum yield (in CC#N): 0.25
- photoluminescence quantum yield (in CCO): 0.34
- photoluminescence quantum yield (in CO): 0.35
- photoluminescence quantum yield (in ClC(Cl)Cl): 0.51
Compound: C[N+]1=C(/C=C/C2=C3Oc4c(cc5c6c4CCCN6CCC5)C(c4ccccc4C(=O)O)=C3CCC2)C(C)(C)c2ccccc21

Compound: CCC1(CC)c2cc(C#Cc3cc(C#Cc4ccc5c(c4)C(CC)(CC)c4cc(N(c6ccccc6)c6ccccc6)ccc4-5)c4ccc5c(C#Cc6ccc7c(c6)C(CC)(CC)c6cc(N(c8ccccc8)c8ccccc8)ccc6-7)cc(C#Cc6ccc7c(c6)C(CC)(CC)c6cc(N(c8ccccc8)c8ccccc8)ccc6-7)c6ccc3c4c65)ccc2-c2ccc(N(c3ccccc3)c3ccccc3)cc21
- photoluminescence quantum yield (in Cc1ccccc1): 0.43

Compound: c1ccc(-c2nc(-c3ccc(N4c5ccccc5C(c5ccccc5)(c5ccccc5)c5ccccc54)cc3)cc(-c3ccc(N4c5ccccc5C(c5ccccc5)(c5ccccc5)c5ccccc54)cc3)n2)cc1
- photoluminescence quantum yield (in Cc1ccccc1): 0.5
- photoluminescence quantum yield (in O=P(c1ccccc1)(c1ccccc1)c1ccc2oc3ccc(P(=O)(c4ccccc4)c4ccccc4)cc3c2c1): 0.94

- photoluminescence quantum yield (in C1CCCCC1): 0.61
Compound: COCCC1(CCOC)c2cc(-c3ccc(OC)cc3)ccc2-c2ccc(-c3ccc(OC)cc3)cc21

Compound: COc1ccc(C2=[N+]3C(=Nc4c(-c5cc(OC)c(OC)c(OC)c5)c(-c5ccc(C(C)(C)C)cc5)c(-c5ccc(OC)cc5)n4[B-]3(F)F)C(c3cc(OC)c(OC)c(OC)c3)=C2c2ccc(C(C)(C)C)cc2)cc1
- photoluminescence quantum yield (in Cc1ccccc1): 0.04

Compound: O=C1c2ccccc2C(=O)C1C1C(=O)c2c3ccccc3cc3cc4ccccc4c1c23 (centres undefined)
- photoluminescence quantum yield (in C1CCOC1): 0.294
- photoluminescence quantum yield (in CC#N): 0.139
- photoluminescence quantum yield (in CCCCCC): 0.339
- photoluminescence quantum yield (in Cc1ccccc1): 0.356
- photoluminescence quantum yield (in ClCCl): 0.247

- photoluminescence quantum yield (in CC#N): 0.1
Compound: CC1=[N+]2C(=C(c3ccccc3)c3c4c(c(C)n3[B-]2(F)F)CCc2ccccc2-4)C2=C1CCc1ccccc12

- photoluminescence quantum yield (in C1CCOC1): 0.5
- photoluminescence quantum yield (in CN1CCCC1=O): 0.2
- photoluminescence quantum yield (in CN(C)C=O): 0.6
Compound: O=C1OC(=O)c2cc(Oc3ccccc3)c3c4ccc5c6c(cc(Oc7ccccc7)c(c7ccc1c2c73)c64)C(=O)OC5=O

- photoluminescence quantum yield (in c1cc(-c2cccc(-n3c4ccccc4c4ccccc43)c2)cc(-n2c3ccccc3c3ccccc32)c1): 0.95
Compound: CC(C)c1cc(C(C)C)c(B2c3cc(N4c5ccccc5C(C)(C)c5ccccc54)ccc3N(c3ccccc3)c3ccc(N4c5ccccc5C(C)(C)c5ccccc54)cc32)c(C(C)C)c1

- photoluminescence quantum yield (in CC#N): 0.16
Compound: C[C@]12SC(=O)C=C1c1nc(-c3ccccc3)[nH]c1C1=CC(=O)S[C@@]12C

Compound: CCN(CC)c1ccc2cc(/C=C(\C#N)c3nc4ccccc4s3)c(=O)oc2c1
- photoluminescence quantum yield (in C1COCCO1): 0.0043
- photoluminescence quantum yield (in CC#N): 0.0027
- photoluminescence quantum yield (in CCO): 0.0048
- photoluminescence quantum yield (in CCOC(C)=O): 0.0035
- photoluminescence quantum yield (in CN(C)C=O): 0.0122
- photoluminescence quantum yield (in CO): 0.0061
- photoluminescence quantum yield (in CS(C)=O): 0.0104
- photoluminescence quantum yield (in Cc1ccccc1): 0.0036
- photoluminescence quantum yield (in ClCCl): 0.0033

Compound: c1cc2cc(c1)c1ccc3ccc4ccc(cc4c3c1)c1ccc3ccc4ccc(cc4c3c1)c1cccc2c1
- photoluminescence quantum yield (in Cc1ccccc1): 0.92

- photoluminescence quantum yield (in O): 0.68
Compound: Cc1ccc2c(c1)n(C)c(-c1ccc(-c3ccc(-c4ccc(-c5n(C)c6cc(C)ccc6[n+]5C)cc4)cc3)cc1)[n+]2C

- photoluminescence quantum yield (in O): 0.37
Compound: CC1=CC(C)=[N+]2C1=C(c1ccccc1)c1c(C)cc(/C=C/c3ccc(O)cc3)n1[B-]2(F)F

Compound: C(#Cc1ccc2ncsc2c1)c1ccc(N(c2ccccc2)c2ccccc2)cc1
- photoluminescence quantum yield (in Cc1ccccc1): 0.23

Compound: O=c1oc2ccccc2cc1-c1nc2ccccc2o1
- photoluminescence quantum yield (in C1CCOC1): 0.77
- photoluminescence quantum yield (in C1COCCO1): 0.84
- photoluminescence quantum yield (in CC1CCCCC1): 0.94
- photoluminescence quantum yield (in CC#N): 0.72
- photoluminescence quantum yield (in CC(C)=O): 0.76
- photoluminescence quantum yield (in CC(C)CO): 0.8
- photoluminescence quantum yield (in CC(C)O): 0.76
- photoluminescence quantum yield (in CCOC(C)=O): 0.86
- photoluminescence quantum yield (in CN(C)C=O): 0.72
- photoluminescence quantum yield (in CO): 0.67
- photoluminescence quantum yield (in CS(C)=O): 0.77
- photoluminescence quantum yield (in Cc1ccccc1): 0.83
- photoluminescence quantum yield (in ClC(Cl)(Cl)Cl): 0.92
- photoluminescence quantum yield (in ClC(Cl)Cl): 0.87
- photoluminescence quantum yield (in OCCO): 0.68

- photoluminescence quantum yield (in CC#N): 0.37
Compound: CCOC(=O)c1c2c3c(cccc3c3cc4ccccc4cc13)N(C)C2=O

- photoluminescence quantum yield (in c1ccccc1): 0.57
Compound: COc1ccc(-c2nc3c(ccc4ccccc43)oc2=O)cc1

- photoluminescence quantum yield (in ClCCl): 0.058
Compound: C(S/C=C/c1ccc(/C=C/SC=C(c2ccccc2)c2ccccc2)cc1)=C(c1ccccc1)c1ccccc1

- photoluminescence quantum yield (in CC#N): 0.42
- photoluminescence quantum yield (in CCCCCC): 0.25
- photoluminescence quantum yield (in CO): 0.12
- photoluminescence quantum yield (in CS(C)=O): 0.19
- photoluminescence quantum yield (in ClC(Cl)Cl): 0.36
Compound: CCC1=C(C)C2=Cc3ccccc3B(O)N2C1=O

- photoluminescence quantum yield (in CS(C)=O): 0.057
Compound: N#CC1=C(N)n2c(=O)c3ccccc3c(=O)n2C1c1ccccc1 (centres undefined)

Compound: COc1cc(N(c2ccccc2)c2ccc(C=C(C#N)C#N)c(OC)c2)ccc1C=C(C#N)C#N
- photoluminescence quantum yield (in C1COCCO1): 0.035
- photoluminescence quantum yield (in CC#N): 0.008
- photoluminescence quantum yield (in CC(C)=O): 0.017
- photoluminescence quantum yield (in CCOC(C)=O): 0.085
- photoluminescence quantum yield (in CN(C)C=O): 0.073
- photoluminescence quantum yield (in CO): 0.039
- photoluminescence quantum yield (in Cc1ccccc1): 0.032
- photoluminescence quantum yield (in ClC(Cl)Cl): 0.076
- photoluminescence quantum yield (in ClCCl): 0.072
